Measured values: US9629893B2, “Agent derived from tortoise spleen stimulating mammalian hemopoiesis” (BMR Solutions Ltd., priority 2003, dated 2017)

Legend:
[1] = FTGN tetrapeptide stability (HPLC); type: physicochemical
Procedure: FIG. 6a: HPLC chromatogram of FTGN tetrapeptide reconstituted in water after storage at −10° C. for one year.
FIG. 6c: HPLC chromatogram of FTGN tetrapeptide reconstituted in serum and incubated at 37° C. during 4 hours.
Dry freeze long term storage of the FTGN oligopeptide preserved its structural (FIG. 6a) and biological activities. The dry frozen tetrapeptide conserved its physical characteristics after reconstitution in purified water or serum (FIG. 6c) and was stable after four hours of incubation at 37° C.

[2] = tested on: Bone marrow cells; assay: In vitro incubation of BM cells with FTGN, cloning in methylcellulose medium (myeloid colonies); type: cell-based, mice; settings: 10 μg/ml, 2 hours; for number of colonies: vs no tetrapeptide
Procedure: FIG. 7a-c: FTGN tetrapeptide biological activity tested in vitro. BM cells were incubated in vitro in RPMI medium in the presence (10 μg/ml) or absence of FTGN tetrapeptide for 2 hours. Cells were washed and cloned in methylcellulose-containing medium.
Bone marrow cells from normal (non irradiated) mice (4-6×10^6 cells/ml) were incubated for 2 hours with 10 μg/ml tetrapeptide; the cells were washed and cloned in cytokine-supplemented methylcellulose semi-solid medium.
Myeloid colonies formed after two weeks were counted.

[3] = tested on: Whole body irradiated C57Bl/6J mice; assay: Ex vivo BMC treatment with FTGN, transplantation into whole body irradiated mice; type: in vivo
Procedure: Mice that were whole-body irradiated with a dose of 7.5 Gy (which is normally considered a lethal dose), were transplanted by intravenous injection with donor's bone marrow cells preincubated ex vivo with different concentrations of the synthetic tetrapeptide.
Bone marrow cells (BMC) were transplanted into mice by intravenous injection, usually 60,000 cells in 0.3 ml of PBS buffer after 2 hours incubation at 37° C. with the examined agent.
Mice spleen colonies (CFUs) were counted using the method of Till and McCulloch [Till J. E. and McCulloch E. A. Radiation Res. (1961) 14: 213] on 9th, 11th and 14th days after irradiation.
CFUc were assayed in semi-solid medium using 2×10^4 cells/plate.
Donor normal BMC (4-6×10^6 cells/nil) from C57 Bl/6J mice were incubated with different concentrations of FTGN tetrapeptide (0.05; 0.1; 0.5; 1.0; 10 and 50 μg/ml) for two hours. Whole body irradiated (7.0 Gy) C57Bl/6J mice were intravenously injected with 6×10^4 treated or control cells. The recovery of the hematopoietic system in the transplanted mice was evaluated from the 4th to the 30th day post-irradiation.

[4] = tested on: Whole body irradiated (7.0 Gy) C57Bl/6J mice; assay: Optimal FTGN ex vivo treatment concentration, normal or irradiated donor BMC transplanted into irradiated mice; type: in vivo
Procedure: (§1) Total body irradiated mice (7.0 Gy) were injected with 6×10^4 BMC previously treated with FTGN tetrapeptide at different concentrations (0.1, 0.5, 1.0, 10.0 and 50.0 μg/ml). Spleen colonies were measured 9 days after irradiation and compared to mice transplanted with BMC incubated only with PBS.
as §1, with “Bone marrow cells from femur” for “Spleen colonies”, “counted 4,” for “measured”, “9 and 16” for “9”
Donor BM cells incubated ex vivo in RPMI medium in the presence (10 μg/ml) or absence of FTGN tetrapeptide for 2 hours were transplanted into irradiated recipient mice (7.0 Gy.). Twenty days after transplant BMC/bone were counted.
In order to elucidate the optimal FTGN tetrapeptide treatment concentration needed to achieve maximum recovery of radiation damaged BMC, two sets of donor cells were examined. Donor BMC (4-6×10^6 cells/ml) from normal untreated C57 Bl/6J mice and from in vivo irradiated mice (4.5 Gy) collected 24 hours post-irradiation, were incubated for two hours with different concentrations of FTGN tetrapeptide (0.05; 0.1; 0.5; 1.0; 10 and 50 μg/ml). Whole body irradiated (7.0 Gy) C57Bl/6J mice were intravenously injected with 6×10^4 of each different donor treated cells or with control cells. The recovery of the hematopoietic system in the transplanted mice was evaluated from the 4th to the 30th day post-irradiation.

[5] = tested on: Irradiated mice (6.5 Gy); assay: In vivo treatment of irradiated mice with FTGN; settings: one or two intravenous 50 μg injections (2 or 2 and 24 hours post-irradiation), one month later
Procedure: Irradiated mice (6.5 Gy) were treated in vivo with the FTGN tetrapeptide. Thirty days after treatment BMC were counted.
Irradiated mice (6.5 Gy) were treated in vivo with the FTGN tetrapeptide. Thirty days after treatment CFU from BM were counted.
Irradiated mice (6.5 Gy) were treated with one or two intravenous 50 μg FTGN tetrapeptide injections (2 or 2 and 24 hours post-irradiation). BM nucleated cells count (FIG. 17) and CFUc (FIG. 18) were examined one month later.

[6] = tested on: Mice irradiated with a high lethal dose (10 Gy); assay: Survival of lethally irradiated mice (10 Gy) transplanted with BM cells treated with FTGN; type: in vivo; settings: 6×10^4 cells incubated one hour with 10 μg/ml, 30 days post-transplant
Procedure: Lethally irradiated mice (10 Gy.) were transplanted with 60.000 donor BM cells previously incubated for 1 hour in the presence ([…]) or absence of FTGN tetrapeptide. Mice survival was pursue during 30 days and compared to control irradiated mice untreated or mice that were transplanted with untreated donor BMC.
Mice irradiated with a high lethal dose (10 Gy) were injected with 6×10^4 cells previously incubated for one hour with 10 μg/ml FTGN tetrapeptide. Mice survival was surveyed for a 30 days period post-transplant.

[7] = tested on: Whole body irradiated C57Bl/6J mice; assay: Ex vivo BMC treatment with FTGN, transplantation into whole body irradiated mice; type: in vivo; settings: 7.5 Gy, treated vs untreated mice (summary)
[8] = side effects in patients; cited from earlier work
[9] = cited from earlier work
[10] = 7.5 Gy, treated vs untreated mice (summary)
[11] = 9th day, vs mice transplanted with non-treated cells

With FTGN (listed as Testudo horsfieldi) the “structural and biological activities after dry freeze long term storage” value ([1]; dry freeze storage, −10° C. for one year, reconstituted in water) was “preserved”, the “stability after reconstitution in purified water or serum” value ([1]; four hours of incubation at 37° C.) was “stable” and the myeloid colony number ([2]; BM cells from normal (non irradiated) mice, colonies after two weeks) was “increased colony number”. The number of colonies ([2]; ex vivo irradiated cells (4.5 Gy)) was “larger number of colonies”, the number of colonies ([2]; in vivo irradiated cells (4.5 Gy)) was “larger number of colonies” and the spleen weight ([3]; 4th day after transplantation, vs control) was “No difference”. For the same compound, the “number of bone marrow cells (BMC)” value [3, 10] was “increased”, the “number of white blood cells (WBC)” value [3, 10] was “increased” and the spleen growth [3, 10] was “enhanced spleen growth”. For the same compound, the spleen colonies number [3, 11] was “augmented”, the spleen weight [3, 11] was “augmented” and the “peripheral blood white cells counts (WBC)” value ([3]; 16th day) was “improved”. The “total number of nucleated bone marrow cells per femur” value ([3]; 16th day) was “doubled”, the spleen weight ([3]; 16th day, relative to control group) was “lower” and the “colony-forming cells (CFUbm) in the bone marrow” value ([3]; semi-solid medium, 9th and 16th day) was “improvement when low concentrations of the oligopeptide were used”. The “ex vivo treatment dose giving the greatest number of nucleated cell in BM” value ([4]; 4, 9 and 16 days after irradiation, 0.05-50 μg/ml tested) was 1 to 10 µg/mL, the “ex vivo treatment dose giving the highest spleen colony forming units (CFUs) count” value ([4]; 9th day, 0.05-50 μg/ml tested) was 1 to 10 µg/mL and the “BM repopulation activity after transplant” value ([4]; donor cells normal or from irradiated (4.5 Gy) mouse, 10 μg/ml, 2 hours) was “accelerated”. The “BM repopulation (BM nucleated cells count and CFUc)” value [5] was “increased the BM repopulation”, the survival [6] was 100% and the “number of spleen colonies” value [7] was “substantially enhanced”.

For `NCCCNCCSP(=O)(O)O` [amifostine], the “patients with nausea and vomiting” value [8] is listed as “approximately 53%” and the “stability at room temperature once reconstituted” value [9] is listed as “quite limited”.
